Values joined by “and” are separate entries in the source; they are usually repeats but may differ in a detail not shown here. Identical values can stand only once.
Legend:
Type in all cases: in vivo, Oryza sativa
[1] = test system: Rice M4 CESA1 and CESA3 mutants; experiment: Greenhouse foliar application, crop injury on tilled Rice M4 generation cellulose synthase mutants (Table E10-2)
Source text: (§1) Oryza sativa M2 Volano is a cellulose biosynthesis inhibitor susceptible rice risotto population that was subjected to sodium azide seed mutagenesis but was not tilled nor selected for CESA mutations. O. sativa Volano-M3-CESA1 and CESA3 mutants were selected from a subpopulation of O. sativa M2 Volano by sequencing CESA gene sequences in M2 plants and maintaining (producing seed through selfing) those individuals containing key mutations in these genes. The tolerance of the M3 CESA1 and CESA3 mutants was assessed using 6-(1-fluorocyclopentyl)-N2-(2,3,5,6-tetrafluorophenyl)-1,3,5-triazine-2,4-diamine, together with 1.0% DASH® EC adjuvant (BASF). The tolerance of M4 CESA1 and CESA3 mutants was assessed using 6-cyclopentyl-N4-(2,3,4,5,6-pentafluorophenyl)-1,3,5-triazine-2,4-diamine, together with 1.0% DASH® EC adjuvant (BASF).
(§2) M3 seed, which were harvested from tilled and selected individuals containing mutations in the CESA1 and CESA3 genes, were grown in the greenhouse under natural light conditions supplemented with 400 W sodium halide lamps under a 16 hr day length. Day/night temperatures were 26 and 20° C., respectively. The number of M3 plants from each line varied between 2 and 16, depending on seed availability and germination. A non-selective CBI, azine 6-(1-fluorocyclopentyl)-N2-(2,3,5,6-tetrafluorophenyl)-1,3,5-triazine-2,4-diamine, formulated with 1.0% DASH in a water volume of 375 L/ha was applied early post-emergent (one to two leaf stage) at a rate of 250 g ai/ha to M3 CESA1 and CESA3 mutant rice plants growing in soil in the greenhouse. Only plants originating from lines having more than four seeds were subjected to herbicide treatment. CESA mutant lines with four or fewer seeds were selfed for an additional generation and then tested at the M4 generation with 6-cyclopentyl-N4-(2,3,4,5,6-pentafluorophenyl)-1,3,5-triazine-2,4-diamine. M4 plants were grown under similar conditions as M3 plants and treated with 250 g ai/ha or 500 g ai/ha of 6-cyclopentyl-N4-(2,3,4,5,6-pentafluorophenyl)-1,3,5-triazine-2,4-diamine. Previous kill curve greenhouse tests had identified that a rate of 250 g ai/ha of 6-(1-fluorocyclopentyl)-N2-(2,3,5,6-tetrafluorophenyl)-1,3,5-triazine-2,4-diamine and a rate of 250 g ai/ha 6-cyclopentyl-N4-(2,3,4,5,6-pentafluorophenyl)-1,3,5-triazine-2,4-diamine, both with 1.0% DASH, were sufficient doses to kill O. sativa M2 Volano check plants. […] Plants were assessed for crop injury, using a scale from 0% injury to 100% injury, at 11 and 21 days after treatment (DAT) for M3 plants applied with 6-(1-fluorocyclopentyl)-N2-(2,3,5,6-tetrafluorophenyl)-1,3,5-triazine-2,4-diamine and 36 DAT for M4 plants applied with 6-cyclopentyl-N4-(2,3,4,5,6-pentafluorophenyl)-1,3,5-triazine-2,4-diamine. Plants without any symptoms were recorded as “0%” injury. Increasing levels of reduced leaf mass and reduced stalk stiffness, with respect to the untreated control plants, were recorded in the range of “1 to 49%” injury. Increasing levels of leaf abnormalities and leaf necrosis, along with increased levels of lodging, relative to the untreated control plants, were recorded in the range of “50 to 85%” injury. Dead or dying plants with necrosis of the apex and severe lodging were recorded between “86-100%”. Data on individual plants was assessed and recorded due to the low number of individuals per line and the fact that the CESA mutations in the M2 generation were heterozygous and therefore segregating at the M3 and M4 generations. […]

[2] = test system: wild type rice materials (O. sativa M2 Volano); experiment: Greenhouse foliar application, crop injury on wild type rice materials (Tables E10-1, E10-2); settings: wild type rice (OsCESA WT)
Source text: as §1, §2

[3] = test system: O. sativa M2 Volano check plants; experiment: Previous kill curve greenhouse tests on rice check plants; settings: with 1.0% DASH
Method: M3 seed, which were harvested from tilled and selected individuals containing mutations in the CESA1 and CESA3 genes, were grown in the greenhouse under natural light conditions supplemented with 400 W sodium halide lamps under a 16 hr day length. Day/night temperatures were 26 and 20° C., respectively. The number of M3 plants from each line varied between 2 and 16, depending on seed availability and germination. […] Plants were assessed for crop injury, using a scale from 0% injury to 100% injury, at 11 and 21 days after treatment (DAT) for M3 plants applied with 6-(1-fluorocyclopentyl)-N2-(2,3,5,6-tetrafluorophenyl)-1,3,5-triazine-2,4-diamine and 36 DAT for M4 plants applied with 6-cyclopentyl-N4-(2,3,4,5,6-pentafluorophenyl)-1,3,5-triazine-2,4-diamine. Plants without any symptoms were recorded as “0%” injury. Increasing levels of reduced leaf mass and reduced stalk stiffness, with respect to the untreated control plants, were recorded in the range of “1 to 49%” injury. Increasing levels of leaf abnormalities and leaf necrosis, along with increased levels of lodging, relative to the untreated control plants, were recorded in the range of “50 to 85%” injury. Dead or dying plants with necrosis of the apex and severe lodging were recorded between “86-100%”. […]

[4] = Rice M4 OsCesA1 S827N (SEQ ID 51), parental plant Hom, 250 g ai/ha
[5] = Rice M4 OsCesA1 T952I (SEQ ID 51), parental plant Het, 500 g ai/ha

Compound: Nc1nc(Nc2c(F)c(F)c(F)c(F)c2F)nc(C2CCCC2)n1 [6-cyclopentyl-N4-(2,3,4,5,6-pentafluorophenyl)-1,3,5-triazine-2,4-diamine]
- Crop injury assessment (%) at 23 DAT [1, 4]: 0%
- Crop injury assessment (%) at 36 DAT [1, 4]: 0%
- Crop injury assessment (%) at 23 DAT ([1]; Rice M4 OsCesA1 T952I (SEQ ID 51), parental plant Het, 250 g ai/ha): 0%
- Crop injury assessment (%) at 23 DAT [1, 5]: 10%
- Crop injury assessment (%) at 36 DAT [1, 5]: 10%
- Crop injury assessment (%) at 23 DAT ([2]; foliar application 250 g ai/ha): 75% and 65%
- Crop injury assessment (%) at 36 DAT ([2]; foliar application 250 g ai/ha): 70% and 95%
- Crop injury assessment (%) at 23 DAT ([2]; foliar application 500 g ai/ha): 98% and 95%
- Crop injury assessment (%) at 36 DAT ([2]; foliar application 500 g ai/ha): 100%
- rate sufficient to kill O. sativa M2 Volano check plants [3]: 250 g ai/ha

Compound: Nc1nc(Nc2c(F)c(F)cc(F)c2F)nc(C2(F)CCCC2)n1 [6-(1-fluorocyclopentyl)-N2-(2,3,5,6-tetrafluorophenyl)-1,3,5-triazine-2,4-diamine]
- Crop Injury Assessment (%) at 20 DAT ([2]; foliar application 250 g ai/ha, 20 DAT): 100%
- rate sufficient to kill O. sativa M2 Volano check plants [3]: 250 g ai/ha

From patent US12018267B2, “Plants having increased tolerance to herbicides” (BASF SE, priority 2015, dated 2024)
